Earlier results on 6 molecules are cited in US7604797B2, “Compositions and methods for treating burns” (BioMechanisms Inc., priority 2003, dated 2009).

Like-named read-outs stand apart in the source and are kept apart here. Where a SMILES comes first, the peptide text is derived from it. Bridges are numbered along the chain shown (N, C = ends). [ ]: non-standard residue; d: D form. The star is where a group is joined. Ileψ(thiazoline)Cys = CC[C@H](C)[C@H](N)C1=N[C@H](C(=O)*)CS1; dOrn = NCCC[C@@H](N)C(=O)O

The subject of series [1] is gram-positive and gram-negative organisms, fungi. To be noted: topical use on burns.
The next series has as its system malignant tumors. To be noted: for Tumor response in patients: acute lymphocytic leukemia, Burkitt's lymphoma, breast carcinoma, mycosis fungoides, epidermoid head and neck cancer, osteogenic sarcoma; for Toxicity of chemotherapy: partly related to polyglutamate formation.

For `C[C@@H]1[C@H](O)[C@@H](C)/C=C/C=C/CC/C=C/C=C/C=C/C=C/C(O[C@H]2O[C@H](C)[C@@H](O)[C@H](N)[C@@H]2O)CC2O[C@](O)(CC(O)C(O)CCC(O)CC(O)CC(O)CC(=O)O[C@H]1C)CC(O)C2C(=O)O` (stereo partly shown) [Nystatin], the “Benefits: effectiveness against microorganisms” value (“Benefits: effectiveness” below) in series [1] is on record as “Effective against the most”.

For `CN(Cc1cnc2nc(N)nc(N)c2n1)c1ccc(C(=O)NC(CCC(=O)O)C(=O)O)cc1` (stereo not shown) [MTX, 4-amino-4-deoxy-N^10-methyl-pteroylglutamic acid], in the series on malignant tumors, the “Tumor response in patients” value is on record as “good to excellent tumor response” and the Toxicity of chemotherapy result is given as “a variety of toxicities”.

For `CC[C@H](C)[C@H](N)C1=N[C@H](C(=O)N[C@@H](CC(C)C)C(=O)N[C@H](CCC(=O)O)C(=O)N[C@H](C(=O)N[C@H]2CCCCNC(=O)[C@H](CC(N)=O)NC(=O)[C@@H](CC(=O)O)NC(=O)[C@H](Cc3cnc[nH]3)NC(=O)[C@@H](Cc3ccccc3)NC(=O)[C@H]([C@@H](C)CC)NC(=O)[C@@H](CCCN)NC2=O)[C@@H](C)CC)CS1` [Bacitracin] ({Ileψ(thiazoline)Cys}-L[dE]IK[dOrn]I[dF]H[dD]N; lactam 4-C), the “Benefits: effectiveness” value in series [1] is “Effective against gram-”. The “Toxicity and adverse effects in use” value in the series on burn patients (in vivo) is listed as “Safe, non-toxic”.

On to `Nc1nc(N)c2nc(CNc3ccc(C(=O)NC(CCC(=O)O)C(=O)O)cc3)cnc2n1` (stereo not shown) [AMT, 4-amino-4-deoxy-pteroylglutamic acid], for which, in the series on malignant tumors, the “Tumor response in patients” value is recorded as “good to excellent tumor response” and the Toxicity of chemotherapy result is given as “a variety of toxicities”.

In the case of Polymyxin B Sulfate, the “Benefits: effectiveness” value in series [1] was “Effective agains gram-”. Besides, in the series with burn patients (topical use on burns), the “Toxicity and adverse effects in use” value was “microorganisms. Non-toxic”.

With Neomycin, in series [1], the “Benefits: effectiveness” value is reported as “Particularly effective”.
